Reference: patent publication US20220370467A1, “USING OF A PPAR-DELTA AGONIST IN THE TREATMENT OF KIDNEY DISEASE” (Reneo Pharmaceuticals, Inc., priority 2019, published 2022)
Entries after “also recorded” stand apart in the source; their conditions may differ.

What was measured:
FXR = molecular target: T1, FXR (Homo sapiens, UniProt Q96RI1); assay: activity on nuclear receptor FXR
T1 sequence (Q96RI1 1-486): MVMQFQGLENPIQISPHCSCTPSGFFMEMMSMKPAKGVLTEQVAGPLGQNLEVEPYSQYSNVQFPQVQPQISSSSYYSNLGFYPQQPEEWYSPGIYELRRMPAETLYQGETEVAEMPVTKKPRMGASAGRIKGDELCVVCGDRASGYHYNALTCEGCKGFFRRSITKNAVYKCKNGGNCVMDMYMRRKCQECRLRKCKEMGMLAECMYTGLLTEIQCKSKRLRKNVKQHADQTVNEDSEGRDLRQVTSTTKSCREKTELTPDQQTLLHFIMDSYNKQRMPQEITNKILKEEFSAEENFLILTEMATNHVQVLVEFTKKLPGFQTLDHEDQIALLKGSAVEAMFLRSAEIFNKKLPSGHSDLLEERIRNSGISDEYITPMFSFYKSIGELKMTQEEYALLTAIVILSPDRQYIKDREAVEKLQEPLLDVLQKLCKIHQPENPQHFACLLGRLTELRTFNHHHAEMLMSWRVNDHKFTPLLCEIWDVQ

[1] = system: B6129S1 hybrid Col4a3−/− mice; assay: Mouse Alport model of kidney fibrosis, Study 1; assay type: in vivo
Text: Mice with mutations in one of the collagen IV genes of glomerular basement membrane collagen, Collagen IV-α3/α4/α5, have defects in glomerular function with development of kidney fibrosis. These mice develop renal dysfunction and die prematurely of renal failure with specific timing dependent on the strain background upon which the mutation is present.
Generation of Col4a3^−/−mice was as described in Miner, J. H., and Sanes, J. R. (1996), J. Cell Biol. 135:1403-1413. Studies of Compound 1 efficacy in Alport models of kidney fibrosis were performed using mice on two different strain backgrounds. Study 1 used B 6129S1 F1 hybrid Alport mice that usually reach end stage renal disease (ESRD) at about 17 to 19 weeks. These were generated by crosses between C57BL6/J (B 6) and 129S1/Sv1mJ (129S1) Alport mice. Study 2 used inbred 129S1 Col4a3^−/− mice, which usually reach ESRD at about 11 to 13 weeks.
Study 1—B6129S1 hybrid Col4a3^−/− mice were given administrations via intraperitoneal injection of either vehicle (PBS) or Compound 1 (10 mg/kg) once a day from 6 to 17-weeks of age. There were 12 mice per group. B6129S1 hybrid Col4a3^+/− mice were used as non-disease controls. Compound 1 was dissolved at 2 mg/mL in PBS twice a week. The dosing volume was calculated as body weight (g)*5 μL (e.g. body weight 20 g: 20*5=100 μL).
Urine and blood samples were collected at the time points of 12, 15, and 17-weeks of age for B6129S1 hybrid Col4a3^+/−, −/− mice and at 8 and 10-weeks of age for inbred 129S1 Col4a3^−/− mice. Urinary protein concentration was determined by Bradford assay (Cat. 5000006, Bio-Rad) and comparison with bovine serum albumin standards. Urinary creatinine was measured by QuantiChrom™ Creatinine Assay Kit (Cat.DICT-500, BioAssay systems) and used to normalize the amount of urine. Blood urea nitrogen (BUN) levels were measured by QuantiChrom™ Urea Assay Kit (Cat.DUR2-100, BioAssay systems). Urine and blood samples were stored at −20° C. and −80° C. respectively after collection and subsequently analyzed.
For biochemistry, kidneys were collected from 15 and 17-week old B 6129S1 hybridCol4a3^+/−, −/− mice; and from 8 and 10-week old inbred 129S1 Col4a3^−/− mice. Collected kidneys were quickly frozen by liquid nitrogen and stored at −80° C. Kidneys were minced in cold PBS containing protease inhibitor (Cat. 786-108, G-BIOSCIENCES), centrifuged, and supernatants were removed. Tissue pellets were washed with PBS and centrifuged again. Tissue pellets were lysed with RIPA buffer containing protease inhibitor and phosphatase inhibitor (Sigma-Aldrich, Cat. P5726). Protein concentration was measured by BCA assays (Cat. 23227, ThermoFisher). The following antibodies were used in western blotting: anti-kidney injury molecule 1 (KIM1) antibody (AF1817, R&D), anti-Lipocalin2/NGAL antibody (ab70287, abcam), anti-phosho-STAT3 antibody (#9145, CST), anti-CTGFantibody (sc-365970, Santa Cruz), anti-TGFb 1,2,3 antibody (MAB1835, R&D), anti-Fibronectin antibody (F3648,Sigma), anti-alpha smooth muscle acting (SMA) antibody (F3777, Sigma), anti-Collagen I antibody (1310-01, SouthernBiotech), anti-Collagen IV antibody (1340-01, SouthernBiotech), anti-alpha Tubulin antibody (#2144, CST).
For all groups, analysis includes measurement of blood urea nitrogen and urinary albumin: creatinine ratios. The analysis also includes renal histopathology (glomerulosclerosis and tubulo-interstitial fibrosis; and analysis of glomerular basement membrane and podocyte ultrastructure. Plasma samples are analyzed for Compound 1 concentration to ensure adequate circulating levels for efficient target engagement. qRT-PCR is performed using RNA from several relevant tissues to examine expression of known transcriptional targets of PPARδ (e.g., PGC1α).
All data are presented as mean±SEM. Statistical significance was determined by Oneway ANOVA with Dunnett's multiple comparison for more than three group comparison and Student's t test for two group comparison.

LXRβ = molecular target: T2, LXRβ (Homo sapiens, UniProt P55055); assay: activity on nuclear receptor LXRβ
T2 sequence (P55055 1-460): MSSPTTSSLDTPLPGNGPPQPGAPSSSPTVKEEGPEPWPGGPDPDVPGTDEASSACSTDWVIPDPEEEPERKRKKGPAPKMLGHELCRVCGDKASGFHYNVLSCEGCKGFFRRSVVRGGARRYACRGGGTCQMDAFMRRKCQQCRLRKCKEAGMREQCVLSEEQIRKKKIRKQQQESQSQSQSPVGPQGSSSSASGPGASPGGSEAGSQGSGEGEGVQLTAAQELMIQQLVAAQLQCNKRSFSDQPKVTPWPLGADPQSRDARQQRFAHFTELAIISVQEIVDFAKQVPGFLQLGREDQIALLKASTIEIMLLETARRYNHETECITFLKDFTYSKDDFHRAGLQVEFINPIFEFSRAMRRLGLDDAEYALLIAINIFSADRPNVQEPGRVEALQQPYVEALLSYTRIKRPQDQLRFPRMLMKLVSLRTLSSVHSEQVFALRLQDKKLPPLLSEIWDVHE

[2] = system: human retinoid X receptor (hRXR); assay: human retinoid X receptor activity
[3] = 10 mg/kg i.p., compared with vehicle-treated mice
[4] = whole kidneys, western blotting

- activity on FXR (FXR): did not show any
- activity on LXRβ (LXRβ): did not show any
- hRXR activity [2]: did not show any
SMILES: Cc1cc(OC/C=C(/c2ccc(F)cc2)c2ccc(C#CCN3CCOCC3)cc2)ccc1OCC(=O)O [Compound 1, (E)-[4-[3-(4-Fluorophenyl)-3-[4-[3-(morpholin-4-yl)propynyl]phenyl]allyloxy]-2-methyl-phenoxy]acetic acid]
- kidney dysfunction ([1]; 10 mg/kg i.p. once a day from 6 to 17-weeks of age): attenuated
- blood urea nitrogen (BUN) ([1]; 10 mg/kg i.p. once a day, at 12 and 17-weeks of age): suppressed the increase
- proteinuria ([1]; 10 mg/kg i.p. once a day, at 17-weeks of age (late stage)): suppressed; also recorded: significantly reduced
- renal histology ([1]; 10 mg/kg i.p., H&E and Trichrome kidney sections): slightly improved
- extent of fibrosis [1, 3]: slightly decreased; also recorded: decreased
- necrotic regions in the cortex [1, 3]: decreased
- infiltration of inflammatory cells ([1]; 10 mg/kg i.p., microscopic examination of kidney sections): slightly reduced
- CTGF expression [1, 4]: attenuated
- Collagen I expression [1, 4]: decreased
- Collagen IV expression [1, 4]: decreased
- NGAL protein level [1, 4]: decreased
- alpha-SMA expression [1, 4]: decreased
- fibronectin expression [1, 4]: not changed
- phosho-Stat3 expression [1, 4]: attenuated
- KIM-1 protein level ([1]; whole kidneys, western blotting, vs vehicle): not changed
